Earlier results on one molecule are cited in US6696071B2, “Pre-coital and post-coital rinse with anti-viral and skin-protective zinc salts” (priority 2001, dated 2004).

Molecules are shown by their SMILES.

The conditions of the series: ionic dissociation in water.

In the case of `O=C[O-].O=C[O-].[Zn+2]` [Zinc formate], the “Reported pK values, pK1” value (pK1) was 0.6. For the setting “pK2”, the “Reported pK values, pK2” value is on record as 0.95.
